Measured values published in patent publication US10881712B2, “Neuroprotective agents derived from spider venom peptides” (THE UNIVERSITY OF QUEENSLAND, priority 2015, dated 2021).
Entries after “also recorded” stand apart in the source; their conditions may differ. Bridge positions count the residues as written; N and C are the ends. Ends that are not written are not given here. Peptide text beside a SMILES is read from it.

Key:
rASIC1a = target: T1, rASIC1a (Rattus norvegicus, UniProt P55926); assay: Two-electrode voltage clamp (TEVC) on Xenopus laevis oocytes expressing homomeric rASIC1a; format: cell-based; conditions: for Extent of inhibition of ASIC1a currents (full or incomplete): at saturating concentrations; for Reversibility of inhibition (in words) / Rapidly reversible inhibition: upon washout; for Rapidly reversible inhibition: Table 1; for % Residual Current: current remaining at saturating peptide concentrations; for Potency compared to wild-type Hi1a (in words): point mutants
T1 construct: expressed in transfected cells; host or cells: Xenopus laevis oocytes injected with cRNA
T1 sequence (P55926 1-526): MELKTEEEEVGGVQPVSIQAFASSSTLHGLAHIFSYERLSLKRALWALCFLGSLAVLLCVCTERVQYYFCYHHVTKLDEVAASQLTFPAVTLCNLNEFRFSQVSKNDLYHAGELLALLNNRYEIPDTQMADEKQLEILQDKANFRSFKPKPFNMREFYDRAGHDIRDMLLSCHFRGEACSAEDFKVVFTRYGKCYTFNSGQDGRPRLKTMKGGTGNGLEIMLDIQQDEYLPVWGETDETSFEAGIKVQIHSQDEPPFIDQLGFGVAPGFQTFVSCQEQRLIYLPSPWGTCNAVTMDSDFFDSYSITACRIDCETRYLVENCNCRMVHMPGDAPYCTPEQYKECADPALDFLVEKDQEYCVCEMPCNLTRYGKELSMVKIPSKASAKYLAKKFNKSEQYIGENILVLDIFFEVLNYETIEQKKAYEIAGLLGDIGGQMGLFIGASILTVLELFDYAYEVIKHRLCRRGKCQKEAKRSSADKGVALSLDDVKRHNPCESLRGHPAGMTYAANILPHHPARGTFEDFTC
Description: The ability of the peptides of the invention to modulate ASIC currents was assessed using two-electrode voltage clamp (TEVC) electrophysiology experiments performed on Xenopus laevis oocytes expressing homomeric ASIC channels. Xenopus oocytes are widely used as an expression system for functional characterisation of ion channel modulators. TEVC allows measurement of whole-cell ion channel currents while controlling the membrane potential.
Oocytes were harvested from anaesthetised female X. laevis then defolliculated by treatment with collagenase (Sigma, type I). Oocytes were injected with in vitro transcribed ASIC cRNA (capped RNA). Oocytes were kept at 17-18° C. in ND96 solution containing 96 mM NaCl, 2 mM KCl, 1.8 mM CaCl2, 2 mM MgCl2, 5 mM HEPES, 5 mM pyruvic acid, 50 μg/ml gentamicin (pH 7.4), and fetal horse serum (2.5%), and experiments were performed at room temperature (21-22° C.) 1-3 days after cRNA injection. Oocytes were clamped at −60 mV (Warner OC-725C oocyte clamp; Warner Instruments, CT, USA) using two standard glass microelectrodes of 0.5-2 MΩ resistance when filled with 3 M KCl. Data acquisition and analysis were performed using pCLAMP software, Version 10 (Axon Instruments, CA, USA). Currents were elicited by a drop in pH from 7.45 to 6.0 using a microperfusion system to allow rapid solution exchange. All experiments were performed using ND96 solution spiked with 0.1% BSA in order to minimise adsorption of peptides to plastic tubing.

[1] = tested on: spontaneously hypertensive rats (SHR); assay: Focal reperfusion (endothelin-1) stroke model in conscious SHR, i.c.v. administration; format: in vivo, rat; conditions: single i.c.v. dose two hours after stroke; Hi1a 2 ng/kg, PcTx1 and mutant 1 ng/kg; 72 h post-stroke
Description: The neuroprotective efficacy of Hi1a was assessed in a rat model of focal cerebral ischemia. In vivo experiments were conducted using a focal reperfusion model of stroke in conscious spontaneously hypertensive rats (SHR) as previously reported (McCarthy et al., Neuropharmacology 99, 650-657, 2015). Two 23-gauge stainless steel guide cannulae were stereotaxically implanted into anaesthetised animals (ketamine 75 mg/kg; xylazine 10 mg/kg; intraperitoneal) 5 days prior to stroke induction. The first cannula was implanted 3 mm dorsal to the right middle cerebral artery for stroke induction. The second cannula was implanted into the left lateral ventricle for drug administration. […]
Compared to models of middle cerebral artery occlusion (MCAO) achieved by surgical exposure of the artery, this model has the advantage of minimal surgical intervention in the brain, and the stroke is induced in the absence of anaesthetics, which can confound the results of drug studies (Callaway et al., 1999; Sharkey et al., 1993). Stroke-induced motor deficit was assessed by counting the number of foot faults made while rats traversed a gradually narrowing ledged beam (McCarthy et al., Stroke 40, 1482-1489, 2009). […] For the neurological score, postural abnormalities were assessed by elevating the rat by the tail above a flat surface and grading the severity of thorax twisting and the angle of forelimb extension. […]

ASIC1a = conditions: McCarthy et al., 2015; cited from earlier work

Row | Compound | Extent of inhibition of ASIC1a currents (full or incomplete) (rASIC1a) | Reversibility of inhibition (in words) (rASIC1a) | Rapidly reversible inhibition (rASIC1a) | IC50 (rASIC1a) [nM] | % Residual Current (rASIC1a) [%] | further results
1 | CC[C@H](C)[C@@H]1NC(=O)[C@@H](NC(=O)[C@H](CCC(=O)O)NC(=O)[C@H](CC(N)=O)NC(=O)[C@@H](N)CO)CSSC[C@@H]2NC(=O)[C@@H]3CSSC[C@@H](C(=O)N[C@H](C(=O)N4CCC[C@H]4C(=O)N[C@H](C(=O)N4CCC[C@H]4C(=O)O)[C@@H](C)CC)C(C)C)NC(=O)[C@H](C(C)C)NC(=O)[C@H](CCC(=O)O)NC(=O)[C@H](Cc4ccccc4)NC(=O)[C@H](CO)NC(=O)[C@H](Cc4c[nH]cn4)NC(=O)[C@H](CCCNC(=N)N)NC(=O)[C@H](CCCNC(=N)N)NC(=O)[C@H](CCCCN)NC(=O)[C@H](Cc4ccc(O)cc4)NC(=O)[C@H](CSSC[C@H](NC(=O)[C@H](CO)NC(=O)[C@H](CC(C)C)NC(=O)[C@H](Cc4c[nH]c5ccccc45)NC(=O)[C@H](CCCCN)NC(=O)[C@H](CCCNC(=N)N)NC1=O)C(=O)N[C@@H](C(C)C)C(=O)N[C@@H](CC(=O)O)C(=O)N[C@@H](CCCNC(=N)N)C(=O)N[C@@H](CCCCN)C(=O)N[C@@H](CC(N)=O)C(=O)N[C@@H](CC(=O)O)C(=O)N3)NC(=O)[C@H](CCC(=O)O)NC(=O)[C@H](CC(C)C)NC(=O)CNC(=O)[C@H](CCC(=O)O)NC2=O [Hi1a_N] (H-SNECIRKWLSCVDRKNDCCEGLECYKRRHSFEVCVPIP-OH; disulfide 4-19, 11-24, 18-34) | fully inhibit | fully reversible | – | – | – | Fold lower potency than PcTx1 or full-length Hi1a (rASIC1a): ~1000 fold
2 | Hi1a_C: C-terminal ICK domain of Hi1a expressed separately in E. coli, SEQ ID NO:21 (IPGFCLVKWKQCDGRERDCCAGLECWKRSGNKSSVCAPIT; listed as Hadronyche infensa) | – | – | – | – | – | Effect on current (rASIC1a; at 1 μM): minor potentiation; Inhibition (rASIC1a; at 10 μM): negligible inhibition; Inhibitory effect (rASIC1a; up to 30 μM): no observed inhibitory effect
3 | PcTx1 mutant iso 2: Double-mutant PcTx1 analogue (R27A/V32A) that is inactive against ASIC1a (EDCIPKWKGCVNRHGDCCEGLECWKRARSFEACVPKTPKT; ends and bridges not checked; cysteine pairing not given here; UniProt P60514 1-40, looked up, variant R27A V32A) | – | – | – | – | – | Infarct size in cortical (penumbral) and striatal (core) regions [1]: completely ineffective; also recorded: no effect; Activity against ASIC1a (ASIC1a): inactive
4 | QECIAKWKSCAGRKLDCCEGLECWKRRWGHEVCVPITQKIFCLEKWKSCFERKYDCCEELECWERRGNKHPVCAPKQ (disulfide 3-18, 10-23, 17-33, 42-57, 49-62, 56-73) [Hi1d] | complete | – | Yes | – | – | –
5 | SEDCIPKWKGCVNRHGDCCEGLECWKRRRSFEVCVPKTEDCIPKWKGCVNRHGDCCEGLECWKRRRSFEVCVPKTPKT (disulfide 4-19, 11-24, 18-34, 41-56, 48-61, 55-71) [EP 1] | full inhibition | slowly reversible | No | 64 | 0 | Fold increase in IC50 (decrease in potency) relative to wild-type Hi1a (rASIC1a): ~200 fold
6 | SEDCIPKWKGCVNRHGDCCEGLECWKRRRSFEVCVPKTGDCIPKWKGCVNRHGDCCEGLECWKRRRSFEVCVPKTPKT (disulfide 4-19, 11-24, 18-34, 41-56, 48-61, 55-71) [EP 2] | full inhibition | slowly reversible | No | 215 | 0 | Fold increase in IC50 (decrease in potency) relative to wild-type Hi1a (rASIC1a): ~500 fold
7 | SEDCIPKWKGCVNRHGDCCEGLECWKRRRSFEVCVPKTPKTIPGFCLVKWKQCDGRERDCCAGLECWKRSGNKSSVCAPIT (disulfide 4-19, 11-24, 18-34, 46-61, 53-66, 60-77) [PcTx1/Hi1a_C] | incomplete inhibition | slowly reversible | No | 1.3 | ~35 | Fold increase in IC50 (decrease in potency) relative to wild-type Hi1a (rASIC1a): 3 fold
8 | SNECIRKWKSCVDRKNDCCEGLECYKRRHSFEVCVPIPGFCLVKWKQCDGRERDCCAGLECWKRSGNKSSVCAPIT (disulfide 4-19, 11-24, 18-34, 41-56, 48-61, 55-72) [Hi1a L8K] | – | – | No | 0.976 | 30 | Potency compared to wild-type Hi1a (in words) (rASIC1a): little effect
9 | SNECIRKWLSCVDRKNDCCEGLECWKRRHSFEVCVPIPGFCLVKWKQCDGRERDCCAGLECWKRSGNKSSVCAPIT (disulfide 4-19, 11-24, 18-34, 41-56, 48-61, 55-72) [Hi1a Y24W] | full inhibition | – | No | 0.537 | 0 | –
10 | SNECIRKWLSCVDRKNDCCEGLECYKRRHSFEVCVPGGGGGGFCLVKWKQCDGRERDCCAGLECWKRSGNKSSVCAPIT (disulfide 4-19, 11-24, 18-34, 44-59, 51-64, 58-75) [EP 3] | – | – | – | > 4 | 80 | Inhibition of rASIC1a currents (rASIC1a; applied at up to 1 μM): ≤ 20%
11 | SNECIRKWLSCVDRKNDCCEGLECYKRRRSFEVCVPIPGFCLVKWKQCDGRERDCCAGLECWKRSGNKSSVCAPIT (disulfide 4-19, 11-24, 18-34, 41-56, 48-61, 55-72) [Hi1a H28R] | – | – | No | 0.115 | 20 | Potency compared to wild-type Hi1a (in words) (rASIC1a): slightly increased potency
